Structures are written as SMILES. Where “and” joins values, the source holds several entries; their conditions need not be identical. Identical values can stand only once. Entries after “also recorded” stand apart in the source; their conditions may differ.

One assay concerns Blautia. Put plainly: Spearman correlation between estimated daily nutrient intake (food questionnaire) and relative abundance of the bacterial genus (16S sequencing of faecal samples). The settings on record: nutrient intake vs relative abundance of Blautia, whole cohort (215 individus). An excerpt: (§1) Les tests statistiques suivants ont été réalisés : • Corrélations non paramétriques de Spearman entre les apports en nutriments calculés et chacune des cinq bactéries d'intérêt. • Corrélations non paramétriques de Spearman entre les fréquences de consommation des aliments du questionnaire alimentaire et chacune des cinq bactéries d'intérêt. • Régressions ordinales entre les fréquences de consommation des aliments du questionnaire alimentaire et chacune des cinq bactéries d'intérêt.
(§2) Après avoir créé leur compte personnel sur le site internet de la société de Luxia Scientific, les clients peuvent remplir de manière volontaire un questionnaire alimentaire. Ce questionnaire possède neuf sous-groupes de questions, chacun constituant une catégorie d'aliments. À l'intérieur de ces sous-groupes, une liste complète d'aliments est fournie et donne aux personnes la possibilité de choisir la fréquence à laquelle elles ont consommé chaque aliment possible au cours du dernier mois dans une portion spécifiée.
(§3) Un tableau des apports nutritionnels par portion d'aliments présents dans le questionnaire a été ensuite créé. Pour créer ce tableau, la Table de composition alimentaire française Ciqual de l'ANSES du 07/07/2020 (https://ciqual.anses.fr/) a été utilisée.
(§4) L'apport en omégas-3 a été calculé en additionnant les valeurs d'apports en acide alpha-linolénique (18:3; ALA), en acide eïcosapentaénoïque (20:5; EPA) et en acide docosahexaénoïque (22:6; DHA). L'apport en omégas-6 a été calculé en additionnant les valeurs d'apports en acide linoléique (18:2; […]) et en acide arachidonique (20:4; ARA) qui sont les deux présents dans la Table Ciqual.
(§5) À cette étape, on possède d'une part les réponses des utilisateurs volontaires pour répondre au questionnaire alimentaire, et, d'autre part, on possède les apports nutritionnels mensuel pour chaque réponse possible de chaque aliment du questionnaire. Il convient ensuite de calculer la somme de tous les apports pour chaque réponse de l'individu au questionnaire, puis de la diviser par 30 pour obtenir l'apport nutritionnel quotidien moyen estimé pour cet individu.
(§6) On obtient ainsi un document décrivant les apports nutritionnels de 70 nutriments chez 288 individus.
(§7) Ces deux fichiers sont ainsi composés au final des données alimentaires de 288 individus. Au début de l'analyse, ont été supprimées les données de 2 individus qui sont des enfants de moins de 4 ans car à cet âge, leur microbiote est encore trop immature pour être représentatif des effets de l'alimentation sur leurs populations bactériennes. On utilise donc les données alimentaires de 286 individus pour les analyses de ce rapport.
(§8) Les résultats ayant servi à l'analyse du microbiote intestinal ont été générés en suivant le processus d'analyse du Dispositif Médical de Diagnostic In Vitro 1test1. En bref, les échantillons fécaux ont été prélevés avec un tube de collecte contenant un conservant afin de permettre le transport à température non controlée depuis l'utilisateur vers le laboratoire d'analyse (DNA/RNA Shield de Zymo Research). L'ADN a ensuite été extrait et le séquençage de la région v3-v4 ARN16s réalisé par le laboratoire IBBL au Luxembourg sur un séquenceur MiSeq d'Illumina selon le protocol en application (peut-être rajouter une référence publication). […]

The subject of another assay is Faecalibacterium. Described as above. The settings on record: nutrient intake vs relative abundance of Faecalibacterium, whole cohort (215 individus).
Source text: as §1, §2, §3, §4, §5, §6, §7, §8

In another assay the test system is Clostridium_XVIII. The assay is described as above. The conditions noted are these: nutrient intake vs relative abundance of Clostridium_XVIII, whole cohort (215 individus).
Source text: as §1, §2, §3, §4, §5, §6, §7, §8

For a further assay, the system named is microbiote intestinal. Description: Short-term colonic incubations (in vitro faecal fermentation, simplified SHIME) with faecal inocula of Parkinson and healthy donors. The format is cell-based, humain. The settings on record: for pH (activité de fermentation): 0-48h. The source says: Pour valider l'effet bénéfique des 5 nutriments d'intérêt sur le microbiote intestinal, une étude In Vitro a été réalisée sur des microbiotes reconstitués à partir de selles d'individus sains et de patients souffrant de la maladie de Parkinson. En particulier, l'effet bénéfique de l'apport de ces nutriments a été évalué à travers l'augmentation de la production de butyrate et d'acides gras à chaine courte en général, ainsi que les changements observés au niveau des métabolites.
Trois donneurs sains et deux donneurs atteints de la maladie de Parkinson ont été recrutés. Pour évaluer les effets de chacun des nutriments sur le microbiote intestinal des donneurs susmentionnés, des simulations coliques à court terme ont été effectuées. L'évaluation de chaque nutriment a été basée 1) sur les effets sur la fermentation microbienne globale (pH) et 2) sur l'activité métabolique microbienne (production de AGCC, de lactate et d'un panel d'environ 400 métabolites).
Les approches in vitro pour étudier le tractus gastro-intestinal et les processus microbiens intestinaux offrent une excellente configuration expérimentale pour étudier les processus qui se développent dans le microbiome intestinal humain. Le dépistage des effets de composés sélectionnés sur le microbiote intestinal peut être effectué au moyen d'une fermentation fécale réalisée dans un seul réacteur, ce qui permet d'évaluer la capacité de substrats spécifiques à moduler la composition et l'activité microbiennes intestinales. Ces expériences représentent une simulation simplifiée du Simulateur continu de l'écosystème microbien intestinal humain (SHIME®).
Les matières fécales ont été recueillies auprès de cinq donneurs (deux donneurs atteints de la maladie de Parkinson (PD) et trois donneurs sains (HD)).
Les matières fécales ont été recueillies dans des conteneurs anaérobies et conservées à la température du réfrigérateur jusqu'à un traitement ultérieur. Dans les 48 heures suivant la défécation, des suspensions fécales (15 % (p/v)) ont été préparées dans un tampon phosphate et mélangées dans un rapport 1 : 1 avec un cryoprotecteur optimisé en interne dans une chambre anaérobie. Les suspensions obtenues ont été immédiatement surgelées dans de l'azote liquide puis conservées à -80°C (cryostock). Juste avant l'expérience, les échantillons ont été décongelés et immédiatement ajoutés aux réacteurs, de sorte qu'un seul cycle de congélation-décongélation a été appliqué sur chaque inoculum individuel.
Un test de dépistage à court terme consiste généralement en une incubation colique d'une dose unique d'un composé d'essai dans des conditions représentatives du gros intestin proximal, en utilisant des inoculums bactériens provenant de donneurs sélectionnés comme sources microbiennes. Cinq traitements et une condition de référence (contrôle négatif) ont été testés par donneur. La composition du milieu dans le contrôle et les traitements est exactement la même, mais le contrôle ne contient pas l'ingrédient de test. Le contrôle est inclus pour déterminer les changements de base dans les différents paramètres étudiés (pH, production d'AGCC, lactate et métabolites liés à l'intestin) résultant de la fermentation des nutriments dans le milieu nutritionnel appauvri en glucides qui est introduit avec les ingrédients d'essai dans les réacteurs (voir ci-dessous), pour fournir des nutriments essentiels à la population microbienne. Chaque condition a été testée en une seule répétition chez cinq donneurs.
Un milieu nutritionnel appauvri en glucides (contenant les nutriments basaux du côlon) a été ajouté à chaque réacteur (y compris le contrôle), ainsi que 10 % (v/v) d'un inoculum fécal cryoconservé à 7,5 % (qui a servi de source microbienne) de chaque des cinq donneurs, portant le volume total dans les réacteurs à 70 mL. Des billes porteuses de mucine ont été incluses dans chaque réacteur, pour simuler la couche de mucus du côlon. […]

[1] abbreviates: healthy individuals, vs control.
[2] abbreviates: two Parkinson patients, vs control.

`CC1=C(/C=C/C(C)=C/C=C/C(C)=C/C=C/C=C(C)/C=C/C=C(C)/C=C/C2=C(C)CCCC2(C)C)C(C)(C)CCC1` [Beta-Carotène, bêta-carotène]: the corrélation in the assay on Blautia is listed as 0,14; with Blautia (listed as bêta-carotène), “corrélation positive significative au seuil de 5%”; in the assay with Faecalibacterium it was 0,12; in the assay with Clostridium_XVIII, 0,11.
Take `CCC=CCC=CCC=CCC=CCC=CCC=CCCC(=O)O` [DHA, acide docosahexaénoïque]: the corrélation in the assay with Clostridium_XVIII was 0,11 and 0,10.
For `CCCC(=O)O` [butyrate de sodium], the production de butyrate entry in the assay on microbiote intestinal (Parkinson patients, vs control, added 10 mM butyrate taken into account) is “a fortement stimulé la production de butyrate; also recorded: a stimulé la production de butyrate dans la population parkinsonienne”; in the assay with microbiote intestinal (healthy individuals, vs control (blank)), “n'a pas stimulé la production de butyrate; also recorded: pas dans la population en bonne santé”. Besides, the “production d'acétate” value in the assay with microbiote intestinal (setting [1]) and in the assay with microbiote intestinal (setting [2]) was “concentrations d'acétate similaires à celles du contrôle” in each case. Moreover, the production de propionate result in the assay on microbiote intestinal (setting [1]) was “concentrations de propionate similaires à celles du contrôle”; with microbiote intestinal (setting [2]) it was “légers effets de stimulation”. For the same compound, the “pH (activité de fermentation)” value in the assay on microbiote intestinal (setting [1]) is “baisses de pH les plus légères”; in the assay with microbiote intestinal (setting [2]), “profils de pH similaires à ceux du contrôle”.

Values taken from patent EP4119135A1, “METHODS FOR REBALANCING THE INTESTINAL FLORA IN PATIENTS SUFFERING FROM PARKINSON'S DISEASE” (Luxia Scientific, priority 2021, dated 2023).
